Values quoted from earlier work as cited in patent US20250049842A1, “THERAPEUTIC BLOOD-ACID-SHIFTING COMPOSITIONS AND METHODS” (priority 2023, published 2025).

Details: for pKa (pKa1, first or only dissociation): step (1) HA/A−; for pKa2 (second dissociation): step (2)

pKa2 (second dissociation) | pKa (third dissociation) (step (3)) | pKa (fourth dissociation) (step (4)) | Structure (SMILES) | pKa (pKa1, first or only dissociation)
 |  |  | CC(=O)C(=O)O [Pyruvic Acid] | 2.49
 |  |  | O=[N+]([O-])O [Nitric Acid] | < 1
2.71 | 4.68 | 7.53 | Nc1nc2ncc(CNc3ccc(C(=O)N[C@@H](CCC(=O)O)C(=O)O)cc3)nc2c(=O)[nH]1 [Folic Acid, reference compound] | 1.63
 |  |  | [O-][Cl+3]([O-])([O-])O [Perchloric Acid] | < 1
 |  |  | [O-][Cl+2]([O-])O [Chloric Acid] | < 1
6.91 |  |  | O=S(O)O [Sulfurous Acid] | 1.18
 |  |  | O=NO [Nitrous] | 3.39
